According to the supplement of paper PMC10307832:

Key:
Assay in all cases: relative viability (nuclei count vs DMSO), 5 days (fraction); higher = more cells survive
Afatinib + Palbociclib = compound: CN(C)C/C=C/C(=O)Nc1cc2c(Nc3ccc(F)c(Cl)c3)ncnc2cc1O[C@H]1CCOC1 [Afatinib] + CC(=O)c1c(C)c2cnc(Nc3ccc(N4CCNCC4)cn3)nc2n(C2CCCC2)c1=O [Palbociclib] (partner 0.5 µM)
Summary of the method: (§1)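 Dosing by pin tool came one day after lung cancer cell lines were seeded in 1536-well plates, using either one drug or a fixed anchor-drug dose plus five library-drug doses (not always all listed) in √10 steps. After 5 days, nuclei were counted on 4× images. Relative viability is treated-well nuclei count divided by vehicle-well nuclei count, and values are medians of duplicate plates.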

Afatinib + Bortezomib = compound: CN(C)C/C=C/C(=O)Nc1cc2c(Nc3ccc(F)c(Cl)c3)ncnc2cc1O[C@H]1CCOC1 [Afatinib] + CC(C)C[C@H](NC(=O)[C@H](Cc1ccccc1)NC(=O)c1cnccn1)B(O)O [Bortezomib] (partner 0.002 µM)
Summary of the method: as §1

Afatinib + Foretinib = compound: CN(C)C/C=C/C(=O)Nc1cc2c(Nc3ccc(F)c(Cl)c3)ncnc2cc1O[C@H]1CCOC1 [Afatinib] + COc1cc2c(Oc3ccc(NC(=O)C4(C(=O)Nc5ccc(F)cc5)CC4)cc3F)ccnc2cc1OCCCN1CCOCC1 [Foretinib] (partner 0.25 µM)
Summary of the method: as §1

Afatinib + Pictilisib = compound: CN(C)C/C=C/C(=O)Nc1cc2c(Nc3ccc(F)c(Cl)c3)ncnc2cc1O[C@H]1CCOC1 [Afatinib] + CS(=O)(=O)N1CCN(Cc2cc3nc(-c4cccc5[nH]ncc45)nc(N4CCOCC4)c3s2)CC1 [Pictilisib] (partner 1 µM)
Summary of the method: as §1

HCC-78
relative viability (Afatinib + Palbociclib; first compound 0.005 µM): 0.46 | relative viability (Afatinib + Palbociclib; first compound 0.01581 µM): 0.41 | relative viability (Afatinib + Palbociclib; first compound 0.05 µM): 0.452 | relative viability (Afatinib + Palbociclib; first compound 0.1581 µM): 0.594 | relative viability (Afatinib + Palbociclib; first compound 0.5 µM): 0.461 | relative viability (Afatinib + Bortezomib; first compound 0.005 µM): 0.528 | relative viability (Afatinib + Bortezomib; first compound 0.01581 µM): 0.514 | relative viability (Afatinib + Bortezomib; first compound 0.05 µM): 0.566 | relative viability (Afatinib + Bortezomib; first compound 0.1581 µM): 0.362 | relative viability (Afatinib + Bortezomib; first compound 0.5 µM): 0.434 | relative viability (Afatinib + Foretinib; first compound 0.005 µM): 0.549 | relative viability (Afatinib + Foretinib; first compound 0.01581 µM): 0.568 | relative viability (Afatinib + Foretinib; first compound 0.05 µM): 0.405 | relative viability (Afatinib + Foretinib; first compound 0.1581 µM): 0.324 | relative viability (Afatinib + Foretinib; first compound 0.5 µM): 0.386 | relative viability (Afatinib + Pictilisib; first compound 0.005 µM): 0.207 | relative viability (Afatinib + Pictilisib; first compound 0.01581 µM): 0.189 | relative viability (Afatinib + Pictilisib; first compound 0.05 µM): 0.19 | relative viability (Afatinib + Pictilisib; first compound 0.1581 µM): 0.218 | relative viability (Afatinib + Pictilisib; first compound 0.5 µM): 0.173

HCC-366
relative viability (Afatinib + Palbociclib; first compound 0.005 µM): 0.469 | relative viability (Afatinib + Palbociclib; first compound 0.01581 µM): 0.361 | relative viability (Afatinib + Palbociclib; first compound 0.05 µM): 0.443 | relative viability (Afatinib + Palbociclib; first compound 0.1581 µM): 0.37 | relative viability (Afatinib + Palbociclib; first compound 0.5 µM): 0.456 | relative viability (Afatinib + Bortezomib; first compound 0.005 µM): 1.1 | relative viability (Afatinib + Bortezomib; first compound 0.01581 µM): 1.07 | relative viability (Afatinib + Bortezomib; first compound 0.05 µM): 1.08 | relative viability (Afatinib + Bortezomib; first compound 0.1581 µM): 0.972 | relative viability (Afatinib + Bortezomib; first compound 0.5 µM): 1.06 | relative viability (Afatinib + Foretinib; first compound 0.005 µM): 0.916 | relative viability (Afatinib + Foretinib; first compound 0.01581 µM): 0.949 | relative viability (Afatinib + Foretinib; first compound 0.05 µM): 0.868 | relative viability (Afatinib + Foretinib; first compound 0.1581 µM): 0.937 | relative viability (Afatinib + Foretinib; first compound 0.5 µM): 0.914 | relative viability (Afatinib + Pictilisib; first compound 0.005 µM): 0.143 | relative viability (Afatinib + Pictilisib; first compound 0.01581 µM): 0.123 | relative viability (Afatinib + Pictilisib; first compound 0.05 µM): 0.224 | relative viability (Afatinib + Pictilisib; first compound 0.1581 µM): 0.134 | relative viability (Afatinib + Pictilisib; first compound 0.5 µM): 0.191

HCC-827
relative viability (Afatinib + Palbociclib; first compound 0.005 µM): 0.158 | relative viability (Afatinib + Palbociclib; first compound 0.01581 µM): 0.139 | relative viability (Afatinib + Palbociclib; first compound 0.05 µM): 0.164 | relative viability (Afatinib + Palbociclib; first compound 0.1581 µM): 0.171 | relative viability (Afatinib + Palbociclib; first compound 0.5 µM): 0.136 | relative viability (Afatinib + Bortezomib; first compound 0.005 µM): 0.704 | relative viability (Afatinib + Bortezomib; first compound 0.01581 µM): 0.25 | relative viability (Afatinib + Bortezomib; first compound 0.05 µM): 0.299 | relative viability (Afatinib + Bortezomib; first compound 0.1581 µM): 0.316 | relative viability (Afatinib + Bortezomib; first compound 0.5 µM): 0.342 | relative viability (Afatinib + Foretinib; first compound 0.005 µM): 0.135 | relative viability (Afatinib + Foretinib; first compound 0.01581 µM): 0.166 | relative viability (Afatinib + Foretinib; first compound 0.05 µM): 0.162 | relative viability (Afatinib + Foretinib; first compound 0.1581 µM): 0.147 | relative viability (Afatinib + Foretinib; first compound 0.5 µM): 0.163 | relative viability (Afatinib + Pictilisib; first compound 0.005 µM): 0.295 | relative viability (Afatinib + Pictilisib; first compound 0.01581 µM): 0.324 | relative viability (Afatinib + Pictilisib; first compound 0.05 µM): 0.312 | relative viability (Afatinib + Pictilisib; first compound 0.1581 µM): 0.37 | relative viability (Afatinib + Pictilisib; first compound 0.5 µM): 0.226

HOP-62
relative viability (Afatinib + Palbociclib; first compound 0.005 µM): 0.415 | relative viability (Afatinib + Palbociclib; first compound 0.01581 µM): 0.431 | relative viability (Afatinib + Palbociclib; first compound 0.05 µM): 0.523 | relative viability (Afatinib + Palbociclib; first compound 0.1581 µM): 0.48 | relative viability (Afatinib + Palbociclib; first compound 0.5 µM): 0.445 | relative viability (Afatinib + Bortezomib; first compound 0.005 µM): 0.69 | relative viability (Afatinib + Bortezomib; first compound 0.01581 µM): 0.723 | relative viability (Afatinib + Bortezomib; first compound 0.05 µM): 0.731 | relative viability (Afatinib + Bortezomib; first compound 0.1581 µM): 0.915 | relative viability (Afatinib + Bortezomib; first compound 0.5 µM): 0.724 | relative viability (Afatinib + Foretinib; first compound 0.005 µM): 1.18 | relative viability (Afatinib + Foretinib; first compound 0.01581 µM): 1.23 | relative viability (Afatinib + Foretinib; first compound 0.05 µM): 1.18 | relative viability (Afatinib + Foretinib; first compound 0.1581 µM): 1.14 | relative viability (Afatinib + Foretinib; first compound 0.5 µM): 1.1 | relative viability (Afatinib + Pictilisib; first compound 0.005 µM): 0.802 | relative viability (Afatinib + Pictilisib; first compound 0.01581 µM): 0.688 | relative viability (Afatinib + Pictilisib; first compound 0.05 µM): 0.757 | relative viability (Afatinib + Pictilisib; first compound 0.1581 µM): 0.662 | relative viability (Afatinib + Pictilisib; first compound 0.5 µM): 0.639

IA-LM
relative viability (Afatinib + Bortezomib; first compound 0.005 µM): 0.929 | relative viability (Afatinib + Bortezomib; first compound 0.01581 µM): 0.719 | relative viability (Afatinib + Bortezomib; first compound 0.05 µM): 0.796 | relative viability (Afatinib + Bortezomib; first compound 0.1581 µM): 0.828 | relative viability (Afatinib + Bortezomib; first compound 0.5 µM): 0.825 | relative viability (Afatinib + Foretinib; first compound 0.005 µM): 1.47 | relative viability (Afatinib + Foretinib; first compound 0.01581 µM): 1.13 | relative viability (Afatinib + Foretinib; first compound 0.05 µM): 1.2 | relative viability (Afatinib + Foretinib; first compound 0.1581 µM): 1.03 | relative viability (Afatinib + Foretinib; first compound 0.5 µM): 1.07 | relative viability (Afatinib + Pictilisib; first compound 0.005 µM): 0.251 | relative viability (Afatinib + Pictilisib; first compound 0.01581 µM): 0.221 | relative viability (Afatinib + Pictilisib; first compound 0.05 µM): 0.227 | relative viability (Afatinib + Pictilisib; first compound 0.1581 µM): 0.198 | relative viability (Afatinib + Pictilisib; first compound 0.5 µM): 0.212

LC-2-ad
relative viability (Afatinib + Palbociclib; first compound 0.005 µM): 0.494 | relative viability (Afatinib + Palbociclib; first compound 0.01581 µM): 0.489 | relative viability (Afatinib + Palbociclib; first compound 0.05 µM): 0.483 | relative viability (Afatinib + Palbociclib; first compound 0.1581 µM): 0.447 | relative viability (Afatinib + Palbociclib; first compound 0.5 µM): 0.477 | relative viability (Afatinib + Bortezomib; first compound 0.005 µM): 1.01 | relative viability (Afatinib + Bortezomib; first compound 0.01581 µM): 1.03 | relative viability (Afatinib + Bortezomib; first compound 0.05 µM): 1.06 | relative viability (Afatinib + Bortezomib; first compound 0.1581 µM): 0.991 | relative viability (Afatinib + Bortezomib; first compound 0.5 µM): 1.19 | relative viability (Afatinib + Foretinib; first compound 0.005 µM): 0.815 | relative viability (Afatinib + Foretinib; first compound 0.01581 µM): 0.718 | relative viability (Afatinib + Foretinib; first compound 0.05 µM): 0.565 | relative viability (Afatinib + Foretinib; first compound 0.1581 µM): 0.565 | relative viability (Afatinib + Foretinib; first compound 0.5 µM): 0.6 | relative viability (Afatinib + Pictilisib; first compound 0.005 µM): 0.617 | relative viability (Afatinib + Pictilisib; first compound 0.01581 µM): 0.427 | relative viability (Afatinib + Pictilisib; first compound 0.05 µM): 0.439 | relative viability (Afatinib + Pictilisib; first compound 0.1581 µM): 0.359 | relative viability (Afatinib + Pictilisib; first compound 0.5 µM): 0.375

LCLC-97TM1
relative viability (Afatinib + Palbociclib; first compound 0.005 µM): 0.222 | relative viability (Afatinib + Palbociclib; first compound 0.01581 µM): 0.232 | relative viability (Afatinib + Palbociclib; first compound 0.05 µM): 0.23 | relative viability (Afatinib + Palbociclib; first compound 0.1581 µM): 0.239 | relative viability (Afatinib + Palbociclib; first compound 0.5 µM): 0.201 | relative viability (Afatinib + Bortezomib; first compound 0.005 µM): 0.733 | relative viability (Afatinib + Bortezomib; first compound 0.01581 µM): 0.646 | relative viability (Afatinib + Bortezomib; first compound 0.05 µM): 0.648 | relative viability (Afatinib + Bortezomib; first compound 0.1581 µM): 0.463 | relative viability (Afatinib + Bortezomib; first compound 0.5 µM): 0.619 | relative viability (Afatinib + Foretinib; first compound 0.005 µM): 1 | relative viability (Afatinib + Foretinib; first compound 0.01581 µM): 0.906 | relative viability (Afatinib + Foretinib; first compound 0.05 µM): 0.894 | relative viability (Afatinib + Foretinib; first compound 0.1581 µM): 0.808 | relative viability (Afatinib + Foretinib; first compound 0.5 µM): 0.907 | relative viability (Afatinib + Pictilisib; first compound 0.005 µM): 0.27 | relative viability (Afatinib + Pictilisib; first compound 0.01581 µM): 0.182 | relative viability (Afatinib + Pictilisib; first compound 0.05 µM): 0.182 | relative viability (Afatinib + Pictilisib; first compound 0.1581 µM): 0.144 | relative viability (Afatinib + Pictilisib; first compound 0.5 µM): 0.15

LK-2
relative viability (Afatinib + Palbociclib; first compound 0.005 µM): 0.621 | relative viability (Afatinib + Palbociclib; first compound 0.01581 µM): 0.633 | relative viability (Afatinib + Palbociclib; first compound 0.05 µM): 0.656 | relative viability (Afatinib + Palbociclib; first compound 0.1581 µM): 0.673 | relative viability (Afatinib + Palbociclib; first compound 0.5 µM): 0.584 | relative viability (Afatinib + Foretinib; first compound 0.005 µM): 0.994 | relative viability (Afatinib + Foretinib; first compound 0.01581 µM): 1.13 | relative viability (Afatinib + Foretinib; first compound 0.05 µM): 0.851 | relative viability (Afatinib + Foretinib; first compound 0.1581 µM): 1.06 | relative viability (Afatinib + Foretinib; first compound 0.5 µM): 0.997 | relative viability (Afatinib + Pictilisib; first compound 0.005 µM): 0.546 | relative viability (Afatinib + Pictilisib; first compound 0.05 µM): 0.485 | relative viability (Afatinib + Pictilisib; first compound 0.1581 µM): 0.596 | relative viability (Afatinib + Pictilisib; first compound 0.5 µM): 0.535

NCI-H358
relative viability (Afatinib + Palbociclib; first compound 0.005 µM): 0.14 | relative viability (Afatinib + Palbociclib; first compound 0.01581 µM): 0.111 | relative viability (Afatinib + Palbociclib; first compound 0.05 µM): 0.12 | relative viability (Afatinib + Palbociclib; first compound 0.1581 µM): 0.118 | relative viability (Afatinib + Palbociclib; first compound 0.5 µM): 0.0955 | relative viability (Afatinib + Foretinib; first compound 0.005 µM): 0.512 | relative viability (Afatinib + Foretinib; first compound 0.01581 µM): 0.423 | relative viability (Afatinib + Foretinib; first compound 0.05 µM): 0.286 | relative viability (Afatinib + Foretinib; first compound 0.1581 µM): 0.167 | relative viability (Afatinib + Foretinib; first compound 0.5 µM): 0.197 | relative viability (Afatinib + Pictilisib; first compound 0.005 µM): 0.305 | relative viability (Afatinib + Pictilisib; first compound 0.01581 µM): 0.241 | relative viability (Afatinib + Pictilisib; first compound 0.05 µM): 0.279 | relative viability (Afatinib + Pictilisib; first compound 0.1581 µM): 0.288 | relative viability (Afatinib + Pictilisib; first compound 0.5 µM): 0.269
